Experiments:
[1] = system: Mv1Lu cells; assay: 3H-Thymidine incorporation in Mv1Lu cells: proliferation / growth; format: cell-based, mink; conditions: absence of cytokines, FIG. 12; read-out: IC50, stimulated proliferation of Mv1Lu cells
Procedure: Mv1Lu cells were seeded at 20,000 cells/well in a 96 well plate containing 0.2% FCS in α-MEM and incubated with the indicated concentrations of proteins for 18 hr. The cells were then pulsed with 8 μCi/ml methyl-^3 H-thymidine (NEN, Boston, Mass.) for 6 hr. Cells were trypsinized, harvested onto filtermats and counted in a β-Counter. Percent neutralization is defined as incorporation in the presence of 12 pM TGF-β1 alone set at 0%, and incorporation without additions as 100%.

[2] = molecular target: T1, BMP-4 (Homo sapiens, UniProt P12644); assay: BIAcore surface plasmon resonance, binding to immobilized BMP-4; conditions: Table 2 (calculations repeated); ligand BMP-4; KD = kdiss/kass
T1 sequence (P12644 293-408): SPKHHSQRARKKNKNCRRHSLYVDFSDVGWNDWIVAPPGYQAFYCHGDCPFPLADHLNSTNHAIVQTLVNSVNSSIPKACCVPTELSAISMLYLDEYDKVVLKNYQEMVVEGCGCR
Procedure: In this system, a purified protein serving as the ligand is covalently coupled to a carboxymethylated dextran surface, and binding molecules (i.e. the analyte) are passed in a fluid phase across the surface. Binding of the analyte to ligand causes a change in reflected light which is directly proportional to mass bound, and is measured in arbitrary response units (R.U.). Analyte-ligand binding is observed as both increasing response with time during the injection of analyte, and the difference in the position of the baseline before and after injection.
Schuster, R. V. Swanson, L. A. Alex, R. B. Bourret, M. I. Simon, Nature 365, 343 (1993). 1000 R.U. equals approximately 1 ng/mm^2. The running buffer was 20 mM Hepes (pH 7.2), 150 mM NaCl and the flow rate for all sensorgrams was 3 μl/min.
Regeneration of the surface to remove bound analyte was done by injection of 10 μl of 20 mM NaOH. To cyclize TRH1 peptides, the material was reduced with 5 mM DTT then brought to a final concentration of 60 μM in 25 mM ammonium acetate (pH 8.5). […]
Data was analyzed using the BIA-evaluation software (Pharmacia Biosensor). The association rate constant, kass, was calculated by first plotting the change in response with time versus response (i.e. dR/dT vs R). […] The affinity constants were calculated from KD =kdiss /kass. […]

[3] = molecular target: T2, TGF-β1 binding to TβRII (Homo sapiens, UniProt P01137); assay: Competition of TGF-β1 binding to immobilized TβRII (Quantikine ELISA); conditions: 40 pM TGF-β1; fetuin 40 μM, TRH1 peptide from TβRII 20 μM; FIG. 14
T2 construct: The mature processed cytokines produced from the members of the gene family show almost 100% amino acid identity between species; purchased R&D Systems
T2 sequence (P01137 279-390 limits assumed): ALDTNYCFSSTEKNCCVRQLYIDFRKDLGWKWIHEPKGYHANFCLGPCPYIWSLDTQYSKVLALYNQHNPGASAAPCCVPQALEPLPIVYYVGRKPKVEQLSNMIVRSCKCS
Procedure: Inhibition of TGF-β1 binding to TβRII was carried out using the Quantikine ELISA kit (R&D Systems). In particular, 96 well plates were pre-coated with the extracellular domain of TβRII. […] This was followed by a 5 minute incubation with the TβRII coated ELISA wells with shaking, washing as recommended, and a 1 hr incubation with the polyclonal anti-TGF-β1 antibody. Plates were developed as per the instructions, and determinations were made in triplicate.

[4] = system: rat bone marrow stromal cells; assay: Dexamethasone-treated rat bone marrow stromal cell cultures (proliferation, mineralization, TGF-β levels); format: cell-based
Procedure: The methods used in the studies described in this example and illustrated in FIGS. 16 and 17 are as follows. Femoral bones were removed under aseptic conditions from adult male Wistar rats (120 g), cleaned of adherent soft tissues, and washed extensively in antibiotics. The distal ends were removed and the marrow contents were flushed out with 10 ml of culture medium. The cells were dispersed by repeated passage through a 20 gauge needle and incubated in alpha-MEM supplemented with 15% fetal bovine serum, ascorbic acid (50 μg/ml), antibiotics (penicillin G 100 μg/ml, gentamicin 50 μg/ml, fungizone 0.3 μg/ml) and 10 mM β-glycerophosphate. […] Following 6 days of culture at 37° C. in a humidified atmosphere containing 5% CO2 in air, the cells were re-plated at a density of 1×10^2 cell/mm^2 in 96 multi-well plates (Falcon 3047), and grown for another 12-14 days. At the end of culture, the cells were fixed and stained for calcium with alizarin red-s for quantification of bone nodule area (reported as mineralized area (mm^2)/well). To assess mineralized tissue formation in the cultures morphometric measurements were carried out with the aid of a Bioquant IV system (Bioquant, Nashville, Tenn., U.S.A.) using a Leitz Orthoplan microscope. TGF-β in culture supernatants taken 4 days prior to scoring mineralization were measured with and without heat activation (80° C. for 10 min) using the Mink cells as the indicator cell line as described in FIG. 12.

## Fetuin: Bovine fetal fetuin, glycoprotein obtained by ammonium sulfate fractionation of FCS and gel filtration (Sigma)
[1]
  IC50: 8 µM
[2]
  Kd: 0.12 µM
[3]
  inhibition of TGF-β1 binding to immobilized recombinant TβRII: competitive inhibitors
[4]; data not shown
  BMP-2 induced osteogenesis in the cultures: could be blocked
[4]; dexamethasone-treated bone marrow cultures, latter two weeks, FIGS. 16 and 18
  deposition of calcium-containing matrix: inhibited deposition of calcium-containing matrix
[4]; dexamethasone-treated, FIG. 15
  cell number during the first week of culture (proliferative phase): stimulated an increase in cell number

Source: US5981483A, “Compositions comprising modulators of cytokines of the TGF-β superfamily” (Mount Sinai Hospital Corporation, priority 1997, dated 1999)
